Source: article PMC12436592 (Nature Communications, 2025)
Several values for one entry are separate records, joined by “and”; a condition that tells them apart may be missing. Identical values can stand only once.

What was measured:
mP2X7R = target: T1, mP2X7R (Mus musculus, UniProt Q9Z1M0); test: Calcium influx assay, 1321N1 astrocytoma cells, BzATP EC80; assay type: cell-based; details: for IC50: 1321N1 cells, BzATP EC80, mean ± SD
T1 construct: expressed in transfected cells
T1 sequence (Q9Z1M0 1-595): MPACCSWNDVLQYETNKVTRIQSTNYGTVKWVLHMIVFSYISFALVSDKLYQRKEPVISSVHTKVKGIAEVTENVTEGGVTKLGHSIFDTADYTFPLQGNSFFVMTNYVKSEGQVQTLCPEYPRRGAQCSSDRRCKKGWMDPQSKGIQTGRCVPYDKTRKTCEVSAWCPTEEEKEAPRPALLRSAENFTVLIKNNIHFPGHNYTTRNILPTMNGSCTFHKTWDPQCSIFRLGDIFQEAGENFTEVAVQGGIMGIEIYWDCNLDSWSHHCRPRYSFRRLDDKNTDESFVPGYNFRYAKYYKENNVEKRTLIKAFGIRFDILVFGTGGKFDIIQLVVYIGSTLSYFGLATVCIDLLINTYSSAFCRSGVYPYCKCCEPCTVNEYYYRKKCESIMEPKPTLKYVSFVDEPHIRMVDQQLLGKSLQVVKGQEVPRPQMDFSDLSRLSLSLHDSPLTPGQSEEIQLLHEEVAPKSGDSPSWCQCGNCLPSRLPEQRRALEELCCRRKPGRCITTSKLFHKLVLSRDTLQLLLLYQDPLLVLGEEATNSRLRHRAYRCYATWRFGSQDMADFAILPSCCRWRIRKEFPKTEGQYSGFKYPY
Text: (§1) . For 1321N1 astrocytoma cells stably expressing the human, rat, or mouse P2X7Rs, or hP2X2Rs or hP2X4Rs, the fluorescent Ca^2+-chelating dye Fluo-4 acetoxymethyl ester (Fluo-4 AM, Thermo Fisher Scientific, Dreieich, Germany) was used. For 1321N1 astrocytoma cell lines recombinantly expressing the hP2X1Rs or hP2X3Rs, the FLIPR® Calcium 5 Assay Kit (Molecular Devices, San José, CA, USA) was employed. Human, rat, and mouse P2X7Rs as well as hP2X1Rs, hP2X2Rs, hP2X3Rs, and hP2X4Rs were recombinantly expressed in 1321N1 astrocytoma cells using a retroviral expression system[72]–[74].
On the first day, 45,000 cells per well (30,000 cells for the human P2X3 receptor-expressing cells) were seeded into a 96-well polystyrene microplate with a black, flat bottom in a final volume of 200 µL. After overnight incubation at 37 °C and 10% CO2 (5% CO2 for the human P2X3R-expressing cell line), the medium was removed by inverting the plate, and the cells were loaded with dye solution. Hanks’ balanced salt solution (HBSS, Thermo Fisher Scientific, Dreieich, Germany) was used as the assay buffer for human P2X1R, P2X2R, P2X3R, and P2X4R. For the P2X7Rs, a different assay buffer was used: 150 mM sodium-glutamate, 5 mM KCl, 0.5 mM CaCl2, 0.1 mM MgCl2, 10 mM D-glucose, 25 mM 4-(2-hydroxyethyl)-1-piperazineethanesulfonic acid (HEPES), pH 7.4. The dye solutions were freshly prepared. The Fluo-4 AM solution contained 3 µM of Fluo-4 AM in assay buffer and 1% of the non-ionic detergent Pluronic F-127® (Sigma-Aldrich, Taufkirchen, Germany). The Calcium 5 dye, used for hP2X1Rs and hP2X3Rs, was prepared in HBSS buffer. Cells were loaded with Fluo-4 AM and incubated for 1 h at room temperature with gentle shaking (100 rpm), while those loaded with the Calcium 5 dye were incubated for 1 h at 37 °C. After incubation, the dye solution was carefully removed from the plate, and buffer was added to the cells for the evaluation of agonists. […] The agonist solution was prepared in a 96-well transparent plate, obtaining the respective EC80 values. As a control, assay buffer without the test compound was used. After 30 min of incubation with antagonist, the plates were measured using a fluorescence imaging plate reader NOVOstar (BMG Labtech GmbH, Offenburg, Germany) at an excitation wavelength of 485 nm and an emission wavelength of 520 nm, for 30 s at 0.4 s intervals. Calcium influx measurements were then initiated by automatic addition of 20 µL of agonist solution by the plate reader’s pipetting device. Data were analyzed using Microsoft Excel and GraphPad Prism (Version 8.0, San Diego, CA, USA). EC80 and IC50 values were calculated using nonlinear regression with a sigmoidal dose-response equation.

hP2X1R = target: T2, hP2X1R (Homo sapiens, UniProt P51575); test: Calcium influx assay, 1321N1 astrocytoma cells, ATP EC80; assay type: cell-based; details: 1321-N1, read-out: % inhibition ± SD at 10 μM, hP2X1R, 10 μM antagonist, ATP 100 nM
T2 sequence (P51575 51-338 limits assumed): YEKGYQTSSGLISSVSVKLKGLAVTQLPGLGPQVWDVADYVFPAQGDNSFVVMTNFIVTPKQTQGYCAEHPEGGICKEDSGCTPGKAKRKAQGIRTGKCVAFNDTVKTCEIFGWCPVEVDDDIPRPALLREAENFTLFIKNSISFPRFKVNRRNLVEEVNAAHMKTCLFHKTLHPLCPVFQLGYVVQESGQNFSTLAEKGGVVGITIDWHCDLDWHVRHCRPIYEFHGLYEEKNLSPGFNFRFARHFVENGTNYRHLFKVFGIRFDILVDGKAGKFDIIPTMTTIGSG
Text: as §1
On the first day, 45,000 cells per well (30,000 cells for the human P2X3 receptor-expressing cells) were seeded into a 96-well polystyrene microplate with a black, flat bottom in a final volume of 200 µL. […] After 30 min of incubation with antagonist, the plates were measured using a fluorescence imaging plate reader NOVOstar (BMG Labtech GmbH, Offenburg, Germany) at an excitation wavelength of 485 nm and an emission wavelength of 520 nm, for 30 s at 0.4 s intervals. Calcium influx measurements were then initiated by automatic addition of 20 µL of agonist solution by the plate reader’s pipetting device. Data were analyzed using Microsoft Excel and GraphPad Prism (Version 8.0, San Diego, CA, USA). EC80 and IC50 values were calculated using nonlinear regression with a sigmoidal dose-response equation.

| Compound | activity at 0.003 µM (mP2X7R; 1321-N1, Log(c) M -8.52288, read-out: normalized calcium signal, mP2X7R IC50 curve) [%] | IC50 (mP2X7R) [nM] | normalized calcium signal, mP2X7R IC50 curve (mP2X7R; Log(c) M -7, 0.1 µM) | normalized calcium signal, mP2X7R IC50 curve (mP2X7R; Log(c) M -7.52288, 0.03 µM) | normalized calcium signal, mP2X7R IC50 curve (mP2X7R; Log(c) M -8, 0.01 µM) | normalized calcium signal, mP2X7R IC50 curve (mP2X7R; Log(c) M -8.52288, 0.003 µM) | inhibition at 10 µM (hP2X1R) [%] | normalized calcium signal, mP2X7R IC50 curve (mP2X7R; Log(c) M -9, 0.001 µM) | normalized calcium signal, mP2X7R IC50 curve (mP2X7R; Log(c) M -9.52288, 0.0003 µM) | times more potent than UB-ALT-P30 on the mP2X7R (mP2X7R; calcium influx) |
| --- | --- | --- | --- | --- | --- | --- | --- | --- | --- | --- |
| O=C(NNc1ccccc1Cl)C12CC3CC(CC(C3)C1)C2 [UB-ALT-P30, reference compound] | 101 | 148 ± 27 | 58.6062 and 69.2329 and 80.2999 and 70.4572 and 91.3507 and 85.9323 and 94.1322 | 92.3415 and 79.1265 and 114.599 and 132.12 and 97.8989 and 119.546 | 92.8335 and 100.155 and 89.6254 and 122.632 and 113.342 and 120.308 | 96.3012 and 101.363 | 36 ± 8 | – | – | – |
| CC12CC3CC1(C)C1(C)CC3(C(=O)NNc3ccccc3Cl)CC21C [UB-MBX-46] | – | 4.52 ± 0.72 | – | – | – | 72.2751 and 83.0134 and 65.4518 and 88.1956 and 92.7904 and 87.7744 and 76.3105 and 64.8252 | – | 110.597 and 115.455 and 88.4 and 102.046 and 107.58 and 103.403 and 110.382 | 115.86 and 127.811 and 92.8545 and 89.4511 and 104.887 and 106.902 and 87.8281 and 105.571 | ~ 33 x |
